From US20260042764A1, “COMPOSITIONS AND METHODS FOR INHIBITION OF KRAS” (TheRas, Inc., priority 2022, published 2026)

Key:
[1] = biological target: T1, Avi-KRAS G12R (1-169) GppNHp/RAF1 RBD-3xFLAG (52-151) (Homo sapiens, UniProt P01116, G12R); assay: Raf1-KRAS G12R-GppNHP disruption HTRF assay (Biological Example 1); format: binding; details: KRAS G12R, GppNHp-loaded; Table 11
T1 construct: Avi-KRAS G12R (1-169)
Summary of the method: (§1)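 Measured with a KRAS/RAF1 HTRF assay at pH 7.5 in 10% DMSO, with two 1 h room-temperature incubations with shaking.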

[2] = biological target: T2, Avi-KRAS G12D (1-169) GppNHp/RAF1 RBD-3xFLAG (52-151) (Homo sapiens, UniProt P01116, G12D); assay: Raf1-KRAS G12D-GppNHP disruption HTRF assay (Biological Example 1); format: binding; details: KRAS G12D, GppNHp-loaded; Table 11
T2 construct: Avi-KRAS G12D (1-169)
Summary of the method: as §1

[3] = biological target: T3, Avi-KRAS G12V (1-169) GppNHp/RAF1 RBD-3xFLAG (52-151) (Homo sapiens, UniProt P01116, G12V); assay: Raf1-KRAS G12V-GppNHP disruption HTRF assay (Biological Example 1); format: binding; details: KRAS G12V, GppNHp-loaded; Table 11
T3 construct: Avi-KRAS G12V (1-169)
Summary of the method: as §1

GP2d cells (KRAS G12D) = assay: Cell-based pERK HTRF assay in GP2d cell (Biological Example 2); details: GP2d (KRAS G12D) cells, pERK HTRF
Summary of the method: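 Phospho-ERK is measured by HTRF following a 60 min compound exposure at 0.25% DMSO, with a 9-point half-log curve topping at 1 μM or 100 nM.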

[4] = biological target: T4, Avi-KRAS WT (1-169) GppNHp/RAF1 RBD-3xFLAG (52-151) (Homo sapiens, UniProt P01116); assay: Raf1-KRAS WT-GppNHP disruption HTRF assay (Biological Example 1); format: binding; details: KRAS WT, GppNHp-loaded; Table 11
T4 construct: Avi-KRAS WT (1-169)
Summary of the method: as §1

T1 sequence (P01116 1-169 isoform P01116-2 G12R): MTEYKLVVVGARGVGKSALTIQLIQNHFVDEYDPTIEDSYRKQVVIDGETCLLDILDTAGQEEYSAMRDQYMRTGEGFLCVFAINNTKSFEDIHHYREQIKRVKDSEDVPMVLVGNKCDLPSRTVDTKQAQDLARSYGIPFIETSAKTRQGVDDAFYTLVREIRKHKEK
T2 sequence (P01116 1-169 isoform P01116-2 G12D): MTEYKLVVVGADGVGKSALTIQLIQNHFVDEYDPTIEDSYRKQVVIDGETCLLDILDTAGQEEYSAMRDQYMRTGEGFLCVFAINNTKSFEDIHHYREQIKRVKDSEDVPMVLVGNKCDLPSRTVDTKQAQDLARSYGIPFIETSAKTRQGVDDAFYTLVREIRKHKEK
T4 sequence (P01116 1-169 isoform P01116-2): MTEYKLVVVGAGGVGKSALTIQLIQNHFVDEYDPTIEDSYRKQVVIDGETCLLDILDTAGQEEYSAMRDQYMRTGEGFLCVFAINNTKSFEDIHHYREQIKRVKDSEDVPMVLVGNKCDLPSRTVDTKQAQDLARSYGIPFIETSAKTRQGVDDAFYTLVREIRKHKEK
T3 sequence (P01116 1-169 isoform P01116-2 G12V): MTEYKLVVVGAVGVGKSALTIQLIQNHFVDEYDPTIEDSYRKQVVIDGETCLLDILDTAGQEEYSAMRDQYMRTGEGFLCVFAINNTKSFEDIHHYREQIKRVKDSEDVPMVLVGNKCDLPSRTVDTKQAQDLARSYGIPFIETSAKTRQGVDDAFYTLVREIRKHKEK

| Structure (SMILES) | IC50 [1] [nM] | IC50 [2] [nM] | IC50 [3] [nM] | IC50 (GP2d cells (KRAS G12D); GP2d) [nM] | IC50 [4] [nM] | IC50 (GP2d cells (KRAS G12D)) [nM] |
| --- | --- | --- | --- | --- | --- | --- |
| CN(c1nc(OC[C@@]23CCCN2C[C@H](F)C3)nc2c(F)c(-c3ccc(F)c4sc(N)c(C#N)c34)c(C(F)(F)F)cc12)[C@H]1CCS(=O)(=O)C1 [Compound 94, 2-amino-4-(4-(((S)-1,1-dioxidotetrahydrothiophen-3-yl)(methyl)amino)-8-fluoro-2-(((2R,7aS)-2-fluorotetrahydro-1H-pyrrolizin-7a(5H)-yl)methoxy)-6-(trifluoromethyl)quinazolin-7-yl)-7-fluorobenzo[b]thiophene-3-carbonitrile] | 100 to 1000 | 100 to 1000 | 100 to 1000 | < 100 | 100 to 1000 |  |
| CN(c1nc(OC[C@@]23CCCN2C[C@H](F)C3)nc2c(F)c(-c3ccc(F)c4sc(N)c(C#N)c34)c(C(F)(F)F)cc12)[C@@H]1CCN(S(C)(=O)=O)C1 [Compound 95] | 100 to 1000 | 100 to 1000 | 100 to 1000 |  | 100 to 1000 | < 100 |
| CS(=O)(=O)N1CCN(c2nc(OC[C@@]34CCCN3C[C@H](F)C4)nc3c(F)c(-c4ccc(F)c5sc(N)c(C#N)c45)c(C(F)(F)F)cc23)CC1 [Compound 96] | 1000 to 10000 | 1000 to 10000 | 1000 to 10000 | < 100 | 1000 to 10000 |  |
| CC(=O)N1CCN(c2nc(OC[C@@]34CCCN3C[C@H](F)C4)nc3c(F)c(-c4ccc(F)c5sc(N)c(C#N)c45)c(C(F)(F)F)cc23)CC1 [Compound 100] | 100 to 1000 | 100 to 1000 | 1000 to 10000 | < 100 | 100 to 1000 |  |
| N#Cc1c(N)sc2c(F)ccc(-c3c(C(F)(F)F)cc4c(N5CCN(C(=O)CO)CC5)nc(OC[C@@]56CCCN5C[C@H](F)C6)nc4c3F)c12 [Compound 101] | 100 to 1000 | 100 to 1000 | 1000 to 10000 | < 100 | 100 to 1000 |  |
| CC(=O)N1CCC(N(C)c2nc(OCC34CCCN3CC(F)C4)nc3c(F)c(-c4ccc(F)c5scc(C#N)c45)c(C(F)(F)F)cc23)C1 (stereo not shown) [Compound 105] | > 10000 | > 10000 | > 10000 |  | > 10000 | > 1000 |
| CN(c1nc(OC[C@@]23CCCN2C[C@H](F)C3)nc2c(F)c(-c3ccc(F)c4scc(C#N)c34)c(C(F)(F)F)cc12)[C@@H]1CCN(C(=O)CC#N)C1 [Compound 106] | > 10000 | > 10000 | > 10000 | > 1000 | > 10000 |  |
| CN(c1nc(OC[C@@]23CCCN2C[C@H](F)C3)nc2c(F)c(-c3ccc(F)c4scc(C#N)c34)c(C(F)(F)F)cc12)[C@@H]1CCN(C(=O)CO)C1 [Compound 107] | > 10000 | > 10000 | > 10000 | > 1000 | > 10000 |  |
| CCC(=O)N1CC[C@@H](N(C)c2nc(OC[C@@]34CCCN3C[C@H](F)C4)nc3c(F)c(-c4ccc(F)c5sc(N)c(C#N)c45)c(C(F)(F)F)cc23)C1 [Compound 113] | 100 to 1000 | 100 to 1000 | 100 to 1000 | < 100 | 100 to 1000 |  |
| CC(=O)N1CCC(N(C)c2nc(OC[C@@]34CCCN3C[C@H](F)C4)nc3c(F)c(-c4ccc(F)c5sc(N)c(C#N)c45)c(C(F)(F)F)cc23)[C@H]1C (stereo partly shown) [Compound 114] | 100 to 1000 | 100 to 1000 | 100 to 1000 | < 100 | 100 to 1000 |  |
| CCC(=O)N1CC[C@@H](N(C)c2nc(OC[C@@]34CCCN3C[C@H](F)C4)nc3c(F)c(-c4ccc(F)c5sc(N)c(C#N)c45)c(C(F)(F)F)cc23)[C@H]1C [Compound 116] | 100 to 1000 | 100 to 1000 | 100 to 1000 | < 100 | 100 to 1000 |  |
| COC[C@@H]1[C@H](N(C)c2nc(OC[C@@]34CCCN3C[C@H](F)C4)nc3c(F)c(-c4ccc(F)c5sc(N)c(C#N)c45)c(C(F)(F)F)cc23)CCN1C(C)=O [Compound 117] | 100 to 1000 | 100 to 1000 | 100 to 1000 | < 100 | 100 to 1000 |  |
| CCN(c1nc(OC[C@@]23CCCN2C[C@H](F)C3)nc2c(F)c(-c3ccc(F)c4sc(N)c(C#N)c34)c(C(F)(F)F)cc12)[C@@H]1CCN(C(C)=O)[C@@H]1COC [Compound 118] | 100 to 1000 | 100 to 1000 | 100 to 1000 | < 100 | 100 to 1000 |  |
| CN(c1nc(OC[C@@]23CCCN2C[C@H](F)C3)nc2c(F)c(-c3ccc(F)c4sc(N)c(C#N)c34)c(C(F)(F)F)cc12)[C@H]1CCN(S(C)(=O)=O)C1 [Compound 119] | 1000 to 10000 | 1000 to 10000 | 1000 to 10000 | < 100 | 100 to 1000 |  |
| CCCN(C)c1nc(OC[C@@]23CCCN2C[C@H](F)C3)nc2c(F)c(-c3ccc(F)c4sc(N)c(C#N)c34)c(C(F)(F)F)cc12 [Compound 120] | 100 to 1000 | 100 to 1000 | 100 to 1000 | < 100 | 100 to 1000 |  |
| N#Cc1c(N)sc2c(F)ccc(-c3c(C(F)(F)F)cc4c(N5CCN(CCO)C(=O)C5)nc(OC[C@@]56CCCN5C[C@H](F)C6)nc4c3F)c12 [Compound 121] | 100 to 1000 | 100 to 1000 | 100 to 1000 | 100 to 1000 | 100 to 1000 |  |
| N#Cc1c(N)sc2c(F)ccc(-c3c(C(F)(F)F)cc4c(N5CC[C@H](CO)C5)nc(OC[C@@]56CCCN5C[C@H](F)C6)nc4c3F)c12 [Compound 123] | 100 to 1000 | 100 to 1000 | 100 to 1000 | < 100 | 100 to 1000 |  |
| N#Cc1c(N)sc2c(F)ccc(-c3c(C(F)(F)F)cc4c(N5CC[C@@H](CO)C5)nc(OC[C@@]56CCCN5C[C@H](F)C6)nc4c3F)c12 [Compound 124] | 100 to 1000 | 100 to 1000 | 100 to 1000 | 100 to 1000 | 100 to 1000 |  |
| N#Cc1c(N)sc2c(F)ccc(-c3c(C(F)(F)F)cc4c(N5CC[C@H](O)C5)nc(OC[C@@]56CCCN5C[C@H](F)C6)nc4c3F)c12 [Compound 125] | 100 to 1000 | 100 to 1000 | 100 to 1000 | < 100 | 100 to 1000 |  |
| N#Cc1c(N)sc2c(F)ccc(-c3c(C(F)(F)F)cc4c(N5CC[C@@H](O)C5)nc(OC[C@@]56CCCN5C[C@H](F)C6)nc4c3F)c12 [Compound 126] | 100 to 1000 | 100 to 1000 | 100 to 1000 | < 100 | 100 to 1000 |  |
| N#Cc1c(N)sc2c(F)ccc(-c3c(C(F)(F)F)cc4c(N5CCC(O)CC5)nc(OC[C@@]56CCCN5C[C@H](F)C6)nc4c3F)c12 [Compound 127] | 100 to 1000 | 100 to 1000 | 100 to 1000 | < 100 | 100 to 1000 |  |
| N#Cc1c(N)sc2c(F)ccc(-c3c(C(F)(F)F)cc4c(N5CC6CCC(C5)C6O)nc(OC[C@@]56CCCN5C[C@H](F)C6)nc4c3F)c12 (stereo partly shown) [Compound 128] | 100 to 1000 | 100 to 1000 | 1000 to 10000 | < 100 | 100 to 1000 |  |
| N#Cc1c(N)sc2c(F)ccc(-c3c(C(F)(F)F)cc4c(N5CC(CO)C5)nc(OC[C@@]56CCCN5C[C@H](F)C6)nc4c3F)c12 [Compound 129] | 100 to 1000 | 100 to 1000 | 100 to 1000 | < 100 | 100 to 1000 |  |
